tested on: human PDE4; test: PDE4 inhibition, in vitro enzymatic IMAP FP assay; type: biochemical; conditions: PDE4 partially purified from human monocytic U-937 cells; fluorescence polarization
Protocol: PDE4 specifically hydrolyzes cAMP and releases the product AMP. The potency of PDE inhibition by said agents was determined in an in vitro enzymatic assay. The assay is commercially available (IMAP™ FP assay Molecular Devices Corp.) and was optimized for the use of human PDE4. Fluorescently labeled cAMP was hydrolyzed by PDE4 and in a second step, binding of labeled product to a large binding partner allowed product detection by fluorescence polarization (FP) measurements.
PDE4 was partially purified from undifferentiated human monocytic cells (U-937) according to Thorpy et al. 1992 (J. Pharmacol. Exp. Ther. 263: 1195). […] In addition, PDE4 preparations were validated by inhibition studies with PDE4-specific and unspecific PDE inhibitors.
Stock solutions of test compounds were made in DMSO and diluted in assay buffer (10 mM Tris-HCl, 10 mM MgCl2, 0.1% BSA 0.05% NaN3, pH 7.2) to the desired concentrations. The solutions used in the assay contained test compound in assay buffer with 2% DMSO.
10 μl of substrate (at a concentration recommended by the manufacturer) were mixed with 5 μl of appropriately diluted PDE and 5 μl of test compound solution. 5 μl of reaction buffer with 2% DMSO were used for control reactions. […] After incubation for 90 minutes at room temperature, 60 μl of binding reagent were added as specified by the manufacturer. Binding was allowed to proceed for 30 minutes and fluorescence polarization was measured. Dose dependence of PDE inhibition was measured by assaying dilution series of test compounds in duplicates. IC50 values were determined from the measured activities by curve fitting.

Row | Compound | IC50
1 | compound of formula I where R1 is [2-[(5-(3,5-dichloro-pyridin-4-yl-amino-carbonyl)-1-ethyl-1H-pyrazolo[3,4-b]pyridin-4-ylamino]-ethyl]thio, R2 and R3 taken together form a C═O Group and R4 is Methyl [Example 6] | 0.37 µM
2 | CCC1OC(=O)C(C)C(OC2CC(C)(OC)C(O)C(C)O2)C(C)C(OC2OC(C)CC(N(C)C)C2O)C(C)(OC)CC(C)C(=O)C(C)C2C(SCCCn3cnc4c(N)ncc(C(=O)NCC(=O)OC)c43)C(=O)OC12C (stereo not shown) [Example 9, compound of formula I where R1 is [3-[4-amino-7-([methoxycarbonylmethyl]-amino-carbonyl)-imidazo[4,5-c]pyridin-1-yl]-propyl]thio, R2 and R3 taken together form a C═O Group and R4 is Methyl] | 24.2 µM
3 | CC[C@H]1OC(=O)[C@H](C)[C@@H](O[C@H]2C[C@@](C)(OC)[C@@H](O)[C@H](C)O2)[C@H](C)[C@@H](O[C@@H]2O[C@H](C)C[C@H](N(C)C)[C@H]2O)[C@](C)(OC)C[C@@H](C)C(=O)[C@H](C)[C@H]2[C@H](SCCn3cnc4c(N)nc(NCc5ccncc5)nc43)C(=O)O[C@@]21C [Example 13, Compound of Formula I where R1 is [2-[6-amino-2-[[(4-pyridyl)methyl]amino]-purin-9-yl]ethyl]thio, R2 and R3 taken together form a C═O Group and R4 is Methyl] | 2.6 µM
4 | CCC1OC(=O)C(C)C(OC2CC(C)(OC)C(O)C(C)O2)C(C)C(OC2OC(C)CC(N(C)C)C2O)C(C)(OC)CC(C)C(=O)C(C)C2C(SCCn3c(CCc4cccnc4)nc4c(N)ncnc43)C(=O)OC12C (stereo not shown) [Example 1, compound of formula I where R1 is [2-[6-Amino-8-(2-pyridin-3-yl-ethyl)-purin-9-yl]ethyl]thio, R2 and R3 taken together form a C═O group and R4 is methyl] | 13.4 µM
5 | CC[C@H]1OC(=O)[C@H](C)[C@@H](O[C@H]2C[C@@](C)(OC)[C@@H](O)[C@H](C)O2)[C@H](C)[C@@H](O[C@@H]2O[C@H](C)C[C@H](N(C)C)[C@H]2O)[C@](C)(OC)C[C@@H](C)C(=O)[C@H](C)[C@H]2[C@H](SCCn3cnc4c(N)nc(NCc5cccnc5)nc43)C(=O)O[C@@]21C [Example 12, Compound of Formula I where R1 is [2-[6-amino-2-[[(3-pyridyl)methyl]amino]-purin-9-yl]ethyl]thio, R2 and R3 taken together form a C═O Group and R4 is Methyl] | 3.8 µM
6 | CCC1OC(=O)C(C)C(OC2CC(C)(OC)C(O)C(C)O2)C(C)C(OC2OC(C)CC(N(C)C)C2O)C(C)(OC)CC(C)C(=O)C(C)C2C(SCCN(Cc3ccncc3)c3ccc(OC)c(OC4CCCC4)c3)C(=O)OC12C (stereo not shown) [Example 4, compound of formula I where R1 is [2-[(3-cyclopentyloxy-4-methoxy-phenyl)-(pyridin-4-ylmethyl)-amino]-ethyl]thio, R2 and R3 taken together form a C═O Group and R4 is Methyl] | 0.28 µM

Now from value to compound:

Row | IC50 | Compound
7 | 7.6 µM | CCC1OC(=O)C(C)C(OC2CC(C)(OC)C(O)C(C)O2)C(C)C(OC2OC(C)CC(N(C)C)C2O)C(C)(OC)CC(C)C(=O)C(C)C2C(SCCCc3c(C(=O)Nc4ccncc4)ccc(OC)c3OC)C(=O)OC12C (stereo not shown) [Example 7, Compound of Formula I where R1 is [3-[2,3-dimethoxy-6-(pyridin-4-yl-amino-carbonyl)phenyl]-propyl]thio, R2 and R3 taken together form a C═O Group and R4 is Methyl]
8 | 4.7 µM | compound of formula I where R1 is [3-[4-Amino-7-(pyridin-4-yl-amino-carbonyl)-imidazo[4,5-c]pyridin-1-yl]-propyl]thio, R2 and R3 taken together form a C═O Group and R4 is Methyl [Example 8]
9 | 3.9 µM | CCC1OC(=O)C(C)C(OC2CC(C)(OC)C(O)C(C)O2)C(C)C(OC2OC(C)CC(N(C)C)C2O)C(C)(OC)CC(C)C(=O)C(C)C2C(SCCn3c(Nc4cccnc4)nc4c(N)ncnc43)C(=O)OC12C (stereo not shown) [Example 2, compound of formula I where R1 is [2-[6-Amino-8-(pyridin-3-ylamino)-purin-9-yl]ethyl]thio, R2 and R3 taken together form a C═O Group and R4 is Methyl]
10 | 3.6 µM | CSCCn1cnc2c(N)ncc(C(=O)Nc3c(Cl)cncc3Cl)c21 [reference compound]
11 | 3.4 µM | CCC1OC(=O)C(C)C(OC2CC(C)(OC)C(O)C(C)O2)C(C)C(OC2OC(C)CC(N(C)C)C2O)C(C)(OC)CC(C)C(=O)C(C)C2C(SCCN(C(=O)c3ccncc3)c3ccc(OC)c(OC4CCCC4)c3)C(=O)OC12C (stereo not shown) [Example 3, Compound of Formula I where R1 is [2-[(3cyclopentyloxy-4-methoxy-phenyl)-(pyridin-4-yl-carbonyl)-amino]ethyl]thio, R2 and R3 taken together form a C═O Group and R4 is Methyl]
12 | 1 µM | CC[C@H]1OC(=O)[C@H](C)[C@@H](O[C@H]2C[C@@](C)(OC)[C@@H](O)[C@H](C)O2)[C@H](C)[C@@H](O[C@@H]2O[C@H](C)C[C@H](N(C)C)[C@H]2O)[C@](C)(OC)C[C@@H](C)C(=O)[C@H](C)[C@H]2[C@H](SCCn3cnc4c(N)ncc(C(=O)Nc5ccncc5)c43)C(=O)O[C@@]21C [Example 10, Compound of Formula I where R1 is [2-[4-amino-7-(pyridin-4-yl-amino-carbonyl)-imidazo[4,5-c]pyridin-1-yl]-ethyl]thio, R2 and R3 taken together form a C═O Group and R4 is Methyl]
13 | 0.85 µM | CCC1OC(=O)C(C)C(OC2CC(C)(OC)C(O)C(C)O2)C(C)C(OC2OC(C)CC(N(C)C)C2O)C(C)(OC)CC(C)C(=O)C(C)C2C(SCCN(Cc3cccnc3)c3ccc(OC)c(OC4CCCC4)c3)C(=O)OC12C (stereo not shown) [Example 5, Compound of Formula I where R1 is [2-[(3-cyclopentyloxy-4-methoxy-phenyl)-(pyridin-3-ylmethyl)-amino]-ethyl]thio, R2 and R3 taken together form a C═O Group and R4 is Methyl]
14 | 0.008 µM | CC[C@H]1OC(=O)[C@H](C)[C@@H](O[C@H]2C[C@@](C)(OC)[C@@H](O)[C@H](C)O2)[C@H](C)[C@@H](O[C@@H]2O[C@H](C)C[C@H](N(C)C)[C@H]2O)[C@](C)(OC)C[C@@H](C)C(=O)[C@H](C)[C@H]2[C@H](SCCn3cnc4c(N)ncc(C(=O)Nc5c(Cl)cncc5Cl)c43)C(=O)O[C@@]21C [Example 11, compound of formula I where R1 is [2-[4-amino-7-(3,5-dichloro-pyridin-4-yl-amino-carbonyl)-imidazo[4,5-c]pyridin-1-yl]-ethyl]thio, R2 and R3 taken together form a C═O Group and R4 is Methyl]

same assay, conditions: ratio of Example 11 IC50 to IC50 of free substituent drawing 48

Row | IC50(PDE4) relative to the IC50(PDE4) for the macrolide substituent in free form | Compound
15 | about one five hundredth | CC[C@H]1OC(=O)[C@H](C)[C@@H](O[C@H]2C[C@@](C)(OC)[C@@H](O)[C@H](C)O2)[C@H](C)[C@@H](O[C@@H]2O[C@H](C)C[C@H](N(C)C)[C@H]2O)[C@](C)(OC)C[C@@H](C)C(=O)[C@H](C)[C@H]2[C@H](SCCn3cnc4c(N)ncc(C(=O)Nc5c(Cl)cncc5Cl)c43)C(=O)O[C@@]21C [Example 11, compound of formula I where R1 is [2-[4-amino-7-(3,5-dichloro-pyridin-4-yl-amino-carbonyl)-imidazo[4,5-c]pyridin-1-yl]-ethyl]thio, R2 and R3 taken together form a C═O Group and R4 is Methyl]

same assay, conditions: up to a concentration of 50 μM in the assay used in the examples

Row | Compound | PDE4-inhibiting activity
16 | CC[C@H]1OC(=O)[C@H](C)[C@@H](O[C@H]2C[C@@](C)(OC)[C@@H](O)[C@H](C)O2)[C@H](C)[C@@H](O[C@@H]2O[C@H](C)C[C@H](N(C)C)[C@H]2O)[C@](C)(OC)C[C@@H](C)C(=O)[C@H](C)[C@H]2[C@H](SC)C(=O)O[C@@]21C [reference compound] | does not show any PDE4-inhibiting activity

From patent US8173609B2, “Macrolides useful against inflammatory and allergic diseases” (Basilea Pharmaceutica AG, priority 2006, dated 2012)
